The results in this text go back to ChEMBL document CHEMBL3244203, “Absolute configuration of glycerol derivatives. 4. Synthesis and pharmacological activity of chiral 2-alkylaminomethylbenzodioxans, competitive alpha-adrenergic antagonists” (J Med Chem, 1977).

A short description of assay [1]: Competitive antagonist activity at alpha-adrenergic receptor in New Zealand rabbit aorta assessed as inhibition of methoxamine-induced contraction incubated for 1 hr. Format: tissue-based, Oryctolagus cuniculus.
Assay [2] deals with Adrenergic receptor alpha. Nature of the assay: Displacement of [3H]dihydroazapetine from alpha-adrenoreceptor in rat vas deferens. On the technique in general: In a radioligand displacement assay an active substance lowers the binding of a labelled ligand.

As for `CCN(CC)C[C@H]1COc2ccccc2O1`, the pA2 – broadly, the negative logarithm of the molar antagonist concentration that doubles the agonist concentration needed for the same response – in assay [1] stood at 5.6. Besides, in assay [2], the negative-log Kd (pKd) – broadly, the negative decadic logarithm of the Kd, by convention in mol/L – was determined as 6.21.
Consider `CCN(CC)C[C@@H]1COc2ccccc2O1`, for which the pA2 in assay [1] worked out at 5.26.
For `c1ccc2c(c1)OC[C@H](CN1CCCCC1)O2`, the pA2 in assay [1] was 7.12.
As to `c1ccc2c(c1)OC[C@@H](CN1CCCCC1)O2`, the pA2 in assay [1] is 5.86.
In the case of `c1ccc2c(c1)OC[C@H](CN1CCN(C[C@H]3COc4ccccc4O3)CC1)O2`, the pA2 in assay [1] is recorded as 7.66. This compound also registered a pKd in assay [2] of 6.85.
`c1ccc2c(c1)OC[C@@H](CN1CCN(C[C@@H]3COc4ccccc4O3)CC1)O2`: the pA2 in assay [1] came out at 6.38. In assay [2], this compound came in with a negative logarithm of the Kd (pKd) of 6.25.
In the case of `c1ccc2c(c1)OCC(CN1CCN(CC3COc4ccccc4O3)CC1)O2` (stereo not given), the pA2 in assay [1] is given as 7.53.
